From the supplement of paper PMC10307832

Experiments:
Experiment in all cases: relative viability (nuclei count vs DMSO), 5 days (fraction); higher = more cells survive
Seliciclib + Pemetrexed = compound: CC[C@H](CO)Nc1nc(NCc2ccccc2)c2ncn(C(C)C)c2n1 [Seliciclib] + Nc1nc2[nH]cc(CCc3ccc(C(=O)N[C@@H](CCC(=O)O)C(=O)O)cc3)c2c(=O)[nH]1 [Pemetrexed] (partner 0.2 µM)
Summary of the method: (§1)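 Lung cancer cell lines were seeded in 1536-well plates and dosed by pin tool the next day, with either a single drug or a fixed anchor-drug dose combined with five library-drug doses (not always all listed) spaced in √10 steps. Five days later, one step fixed the cells and stained their nuclei (final 0.05% Triton X-100, 1% formaldehyde, 1 ug/ml Hoechst), and nuclei were counted on 4× images. Relative viability is the nuclei count in treated wells divided by the count in vehicle wells, and each value is the median of duplicate plates.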

Seliciclib + Phenformin = compound: CC[C@H](CO)Nc1nc(NCc2ccccc2)c2ncn(C(C)C)c2n1 [Seliciclib] + N=C(N)NC(=N)NCCc1ccccc1 [Phenformin] (partner 250 µM)
Summary of the method: as §1

Seliciclib + Navitoclax = compound: CC[C@H](CO)Nc1nc(NCc2ccccc2)c2ncn(C(C)C)c2n1 [Seliciclib] + CC1(C)CCC(c2ccc(Cl)cc2)=C(CN2CCN(c3ccc(C(=O)NS(=O)(=O)c4ccc(N[C@H](CCN5CCOCC5)CSc5ccccc5)c(S(=O)(=O)C(F)(F)F)c4)cc3)CC2)C1 [Navitoclax] (partner 0.5 µM)
Summary of the method: as §1

Seliciclib + Trametinib = compound: CC[C@H](CO)Nc1nc(NCc2ccccc2)c2ncn(C(C)C)c2n1 [Seliciclib] + CC(=O)Nc1cccc(-n2c(=O)n(C3CC3)c(=O)c3c(Nc4ccc(I)cc4F)n(C)c(=O)c(C)c32)c1 [Trametinib] (partner 0.02 µM)
Summary of the method: as §1

Cell Line	relative viability (Seliciclib + Pemetrexed; first compound 0.08 µM)	relative viability (Seliciclib + Pemetrexed; first compound 0.253 µM)	relative viability (Seliciclib + Pemetrexed; first compound 0.8 µM)	relative viability (Seliciclib + Pemetrexed; first compound 2.53 µM)	relative viability (Seliciclib + Pemetrexed; first compound 8 µM)	relative viability (Seliciclib + Phenformin; first compound 0.08 µM)	relative viability (Seliciclib + Phenformin; first compound 0.253 µM)	relative viability (Seliciclib + Phenformin; first compound 0.8 µM)	relative viability (Seliciclib + Phenformin; first compound 2.53 µM)	relative viability (Seliciclib + Phenformin; first compound 8 µM)	relative viability (Seliciclib + Navitoclax; first compound 0.08 µM)	relative viability (Seliciclib + Navitoclax; first compound 0.253 µM)	relative viability (Seliciclib + Navitoclax; first compound 0.8 µM)	relative viability (Seliciclib + Navitoclax; first compound 2.53 µM)	relative viability (Seliciclib + Navitoclax; first compound 8 µM)	relative viability (Seliciclib + Trametinib; first compound 0.08 µM)	relative viability (Seliciclib + Trametinib; first compound 0.253 µM)	relative viability (Seliciclib + Trametinib; first compound 0.8 µM)	relative viability (Seliciclib + Trametinib; first compound 2.53 µM)	relative viability (Seliciclib + Trametinib; first compound 8 µM)
NCI-H441	0.232	0.246	0.228	0.249	0.276	0.836	0.804	0.805	0.459	0.632	0.603	0.365	0.526	0.566	0.59	0.563	0.552	0.557	0.241	0.454
NCI-H23	0.715	0.72	0.619	0.337	0.489	0.83	0.809	0.784	0.672	0.603	0.813	0.677	0.842	0.624	0.565	0.428	0.343	0.406	0.297	0.308
HARA	0.238	0.28	0.244	0.227	0.21	0.424	0.423	0.469	0.47	0.393	1.13	1.23	1.11	1.16	1.07	0.675	0.719	0.565	0.828	0.44
NCI-H1792	0.795	0.694	0.82	–	0.868	0.421	0.308	0.306	–	0.329	0.616	0.583	0.663	0.443	0.609	0.353	0.329	0.408	–	0.372
NCI-H1703	–	–	–	–	–	–	–	–	–	–	0.957	0.862	1.05	1.21	0.87	–	–	–	–	–
NCI-H358	0.17	0.178	0.167	0.159	0.169	0.347	0.392	0.248	0.241	0.209	–	–	–	–	–	0.137	0.124	0.143	0.104	0.0859
CAL-12T	1.16	0.949	1.2	1.06	1.01	0.604	0.789	0.612	0.53	0.376	1.25	–	1.04	1.03	1.06	0.367	0.337	0.324	0.257	0.2
NCI-H727	–	–	–	–	–	0.562	0.488	0.561	0.373	0.472	0.509	0.494	0.407	0.43	0.309	0.388	0.443	0.399	0.377	0.335
NCI-H2085	0.979	1.01	0.856	0.935	0.727	0.714	0.658	0.692	0.71	0.611	1.13	1.16	1.14	1.05	0.965	0.509	0.475	0.513	0.41	0.343
NCI-H1395	0.932	0.757	0.854	–	0.756	0.433	0.438	0.455	0.453	0.428	1.12	0.936	1.31	1.08	1.06	1.04	0.843	0.968	–	1.04
SW 900	0.515	0.501	0.484	0.451	0.406	0.62	0.6	0.404	0.643	0.418	–	–	–	–	–	0.632	0.833	0.734	0.514	0.524
NCI-H460	0.0625	0.0553	0.0625	0.0593	0.0753	0.55	0.526	0.515	0.567	0.469	1.1	1.13	1.03	1.1	0.801	0.176	0.137	0.132	0.115	0.102
A549	–	–	–	–	–	0.154	–	0.183	0.171	0.127	1.08	1.06	1.21	1.19	0.925	–	–	–	–	–
IA-LM	–	–	–	–	–	–	–	–	–	–	0.738	1.15	0.732	0.772	0.72	–	–	–	–	–
EKVX	0.368	0.37	0.354	0.379	0.472	–	0.255	0.189	0.215	0.199	0.951	1.1	0.865	0.777	0.702	0.373	0.252	0.286	0.31	0.328
ChaGo-K-1	0.25	0.253	0.264	0.251	0.251	0.485	0.389	0.508	0.422	0.384	1.03	0.567	0.949	0.755	0.431	0.838	0.87	0.894	0.873	0.745
SK-MES-1	1	1.17	0.932	0.862	0.708	0.686	0.755	0.619	0.672	0.635	1.24	1.34	1.11	1.04	0.715	0.478	0.482	0.55	0.602	0.504
NCI-H1755	0.385	0.386	0.431	0.419	0.467	0.601	0.6	0.586	0.584	0.599	0.984	0.997	0.998	1.04	0.871	0.804	0.658	0.757	0.776	0.71
NCI-H2228	0.325	0.326	0.337	0.34	0.344	0.322	0.209	0.287	0.275	0.257	0.562	0.447	0.913	0.735	0.653	0.504	0.204	0.498	0.497	0.528
NCI-H2087	0.635	0.591	0.673	0.652	0.639	0.537	0.495	0.411	0.41	0.385	0.914	0.879	0.991	0.879	0.696	0.202	0.203	0.217	0.145	0.196

Cell Line	relative viability (Seliciclib + Pemetrexed; first compound 0.08 µM)	relative viability (Seliciclib + Pemetrexed; first compound 0.253 µM)	relative viability (Seliciclib + Pemetrexed; first compound 0.8 µM)	relative viability (Seliciclib + Pemetrexed; first compound 2.53 µM)	relative viability (Seliciclib + Pemetrexed; first compound 8 µM)	relative viability (Seliciclib + Phenformin; first compound 0.08 µM)	relative viability (Seliciclib + Phenformin; first compound 0.253 µM)	relative viability (Seliciclib + Phenformin; first compound 0.8 µM)	relative viability (Seliciclib + Phenformin; first compound 2.53 µM)	relative viability (Seliciclib + Phenformin; first compound 8 µM)	relative viability (Seliciclib + Navitoclax; first compound 0.08 µM)	relative viability (Seliciclib + Navitoclax; first compound 0.253 µM)	relative viability (Seliciclib + Navitoclax; first compound 0.8 µM)	relative viability (Seliciclib + Navitoclax; first compound 2.53 µM)	relative viability (Seliciclib + Navitoclax; first compound 8 µM)	relative viability (Seliciclib + Trametinib; first compound 0.08 µM)	relative viability (Seliciclib + Trametinib; first compound 0.253 µM)	relative viability (Seliciclib + Trametinib; first compound 0.8 µM)	relative viability (Seliciclib + Trametinib; first compound 2.53 µM)	relative viability (Seliciclib + Trametinib; first compound 8 µM)
LU99A	0.172	0.211	0.204	0.197	0.188	0.898	0.937	0.817	0.705	0.714	0.9	0.671	0.69	0.759	0.711	0.586	0.484	0.5	0.485	0.393
NCI-H1355	0.945	0.922	1.02	1.02	0.962	0.436	0.443	0.433	0.423	0.435	0.952	0.861	1.01	1.13	0.873	0.391	0.336	0.477	0.474	0.415
NCI-H520	0.535	0.627	0.657	0.654	0.619	0.61	–	0.571	0.634	0.38	0.96	0.847	0.997	1.2	1.18	0.617	0.411	0.669	0.599	0.625
NCI-H661	0.839	1.03	0.921	0.82	0.806	0.274	0.26	0.297	0.264	0.304	–	–	–	–	–	0.59	0.581	0.5	0.491	0.416
NCI-H650	1.06	0.905	1.07	0.73	0.825	0.48	0.467	0.532	0.257	0.46	–	–	–	–	–	0.96	1.08	1.01	0.863	0.877
NCI-H647	0.2	0.151	0.174	0.179	0.196	0.515	–	0.537	0.603	0.409	1.02	1	1.06	1.12	0.878	0.392	0.37	0.427	0.512	0.508
201T	0.379	0.357	0.382	0.27	0.323	0.413	0.441	0.47	0.383	0.418	1.18	1.17	1.2	1.2	1.13	0.701	0.716	0.694	0.727	0.632
NCI-H838	0.246	0.28	0.242	0.263	0.239	0.59	0.559	0.561	0.461	0.329	1.11	1.03	1.2	1.26	0.917	0.516	0.485	0.523	0.449	0.451
SW 1573	0.875	0.723	0.886	0.791	0.731	0.373	0.24	0.346	0.384	0.311	1.09	0.732	0.901	0.86	0.655	0.561	0.48	0.566	0.57	0.341
PC-14	0.125	0.147	0.166	0.143	0.122	0.665	0.431	0.553	0.463	0.319	0.988	1.04	0.959	1.09	0.767	0.788	0.529	0.719	0.721	0.532
LK-2	0.25	0.274	0.266	0.166	0.195	0.475	0.415	0.358	0.243	0.274	0.797	0.648	0.823	0.643	0.536	0.747	0.575	0.69	0.693	0.577
COR-L23	0.209	0.192	0.195	0.198	0.212	0.435	0.534	0.465	0.378	0.382	0.906	1.1	0.867	1.06	0.733	0.577	0.464	0.577	0.566	0.471
NCI-H1648	0.767	0.922	0.963	0.675	0.591	–	–	–	–	–	–	–	–	–	–	0.5	0.501	0.478	0.406	0.394
NCI-H2342	0.748	0.779	0.752	0.693	0.711	0.606	0.54	0.533	0.496	0.521	–	–	–	–	–	0.705	0.598	0.865	0.752	0.887
LCLC-103H	0.377	0.439	0.514	0.456	0.494	0.393	0.337	0.347	0.308	0.316	–	–	–	–	–	0.666	0.711	0.647	0.681	0.682
ABC-1	–	–	–	–	–	0.251	0.257	0.234	0.281	0.222	–	–	–	–	–	–	–	–	–	–
NCI-H1563	0.8	0.716	0.85	0.698	0.668	0.754	0.63	0.651	0.626	0.664	–	–	–	–	–	–	–	–	–	–
EBC-1	–	–	–	–	–	–	–	–	–	–	0.447	0.417	0.402	0.333	0.231	–	–	–	–	–
Calu-6	–	–	–	–	–	–	–	–	–	–	0.796	0.933	0.939	0.895	0.825	–	–	–	–	–
